Measured values taken from patent publication US20230381170A1, “METHOD FOR TREATING ALS/FTD THROUGH DEGRADATION OF RNA REPEAT EXPANSION” (University of Florida Research Foundation, Incorporated, priority 2020, published 2023).
Like-named read-outs stand apart in the source and are kept apart here.

Assays:
r(G4C2)8 [1] = assay: RIBOTAC cleavage of r(G4C2)8 in vitro, FRET assay with RNase L; assay type: biochemical; details: r(G4C2)8 labeled Cy5/Cy3
Protocol: RIBOTAC Cleavage of […] in vitro: Gel Analysis. A model of r(G4C2)^exp, r(G4C2)8 was radioactively labeled at its 5′ end and purified on a denaturing 15% polyacrylamide gel as previously described (12, 57). Then, 25 nM of labeled RNA was folded by heating at 95° C. for 5 min in 1× Rnase L buffer (25 mM Tris-HCl, pH7.4, and 100 mM NaCl) and allowed to slowly cool to room temperature. To the folded RNA was added 2-Mercaptoethanol (7 mM final concentration), ATP (50 µM final concentration), and MgCl2 (10 mM final concentration). Compound was added, and the samples were incubated for 15 min at room temperature. Next, Rnase L was added to a final concentration of 25 or 50 nM, and the samples were incubated at 37° C. (1 h or overnight). Fragments were separated on a denaturing 15% polyacrylamide gel, imaged by phosphorimaging with a Typhoon FLA 9500, and quantified with BioRad's QuantityOne software. All studies were performed in duplicate.
RIBOTAC Cleavage of r(G4C2)8 in vitro: FRET Assay. A FRET assay was developed to monitor RIBOTAC-induced cleavage of r(G4C2)8 by Rnase L. This assay uses r(G4C2)8 labeled with Cy5 and Cy3, at the 5′ and 3′ end, respectively (Dharmacon). […] Fluorescence was measured on a Molecular Devices SpectraMax M5 plate reader (Cy3, Ex.: 554 nm; Em.: 568 nm; Cy5, Ex.: 649 nm, Em.: 666 nm; FRET, Ex.: 554 nm, Em.: 666 nm). […]

C9orf72 transcripts = assay: C9orf72 variants by RT-qPCR in brain of +/+PWR500 C9orf72 BAC mice; assay type: in vivo, mouse; details: three weeks
Protocol: Therapeutic Efficacy in a c9ALS/FD mouse model. All animal studies were completed as approved by the Scripps Florida Institutional Animal Care and Use Committee. A total of 24 mice (12+/+PWR500 [7 Male and 5 Female] and 12 WT [6 Male and 6 Female]) mice, age- and gender-matched and ranging in age from 18-22 weeks old were used in therapeutic efficacy studies (Table 6). Mice were anesthetized by intraperitoneal (i.p.) injection of 10 mg/mL Ketamine:1 mg/mL Xylazine solution. Intracerebroventricular (ICV) stereotactic injections of 10 μL of 7 (33 nmol) were administered into the right ventricle using the following coordinates: 0.2 mm posterior and 1.0 mm lateral to the right from the bregma and 3 mm deep. Mice were treated with 7 or vehicle consisting of 1% DMSO in Saline. Three weeks post-treatment, mice were euthanized, and tissue was harvested for study.
Measuring C9orf72 Variants by RT-qPCR. Postmortem brain tissue was harvested and sliced along the midline. The left hemisphere was frozen for RNA and protein analysis. The left hemisphere of each brain was homogenized in 300 μL ice cold Tris-EDTA buffer with 2× protease inhibitors. 150 μL of homogenized tissue was used for RNA extraction. 450 μL of triazol LS was added to the homogenized tissue and centrifuged for 15 min at 16,000 rpm. Following centrifugation, supernatant was collected and an equal volume (600 μL) of 100% ethanol was added and mixed thoroughly. RNA was purified using a Direct-zol RNA Kit (Zymo Research) per the manufacturer's protocol. RT-qPCR was performed as described above. Expression levels of mRNAs were normalized to mouse (3-actin. See Table 2 for a list of primers. Statistical analysis was measured using an unpaired t-test with Welch's correction.

[2] = tested on: C9orf72 intron 1 harboring r(G4C2)exp; assay: C9orf72 intron 1 RT-qPCR in patient-derived LCLs; assay type: cell-based, human; details: disease-affected LCLs
Protocol: Measuring Levels of C9orf72 and C9orf72 Variants by RT-qPCR. LCLs were seeded in 6-well plate (˜10^6 cells in 2 mL of growth medium) and incubated overnight at 37° C. Cells were then treated with various concentrations of compound for 24 h or with G4C2-ASO and Control-ASO (100 nM), delivered by transfection with Lipofectamine RNAiMax. RNA was extracted as described above and the expression of C9orf72 variants was determined by RT-qPCR. […] For compound treatment well, medium change was performed with fresh compound every 3-4 days. RNA was extracted as described above and the expression of C9orf72 variants was determined by RT-qPCR.

r(G4C2)8 [3] = assay: Biolayer interferometry (BLI) binding
Protocol: Biolayer Interferometry (BLI). BLI studies were performed similarly as previously described (12) using an Octet RED96. Briefly, 5′-biotinylated nucleic acids were folded by heating at 95° C. for 4 min in 10 mM sodium phosphate buffer, pH 7, followed by slowly cooling to room temperature. Then, to the folded RNA were added the following components: 1.386 mL 1×DPBS (21-031-CV, Corning), 180 μL freshly prepared 1% (w/v) BSA, 36 μL 1% (v/v) Tween-20, and 18 μL DMSO (1% final concentration) in a final volume of 1.8 mL. The final concentration of RNA was 0.5 μM. Separately, serial dilutions of the compound of interest were prepared in the same buffer.
The resulting curves were analyzed and processed using Octet Data Analysis software version 9.1 by subtracting the response of the sensors recorded upon incubation with solutions containing compound and no RNA (parallel reference). The data were then fitted assuming reversible binding using the entire time interval for association and dissociation using either 1:1 or the 2:1 heterogeneous binding curve fitting model. The reported Kd,n, kon,n and koff,n values represent the average of two independent experiments.

FRET signal upon addition of compound and Rnase L (r(G4C2)8 [1])	dissociation rate (koff) compared to 2 (r(G4C2)8 [3]; BLI)	Kd (r(G4C2)8 [3]; BLI, read-out: Kd) [nM]	Kd (r(G4C2)8 [3]; BLI, read-out: Kd, 2) [nM]	bound more avidly to r(G4C2)8 than 2 (r(G4C2)8 [3]; Kd relative to 2) [fold]	SMILES	C9orf72 exon 1b RNA levels (C9orf72 transcripts; 33 nmol ICV)	all C9orf72 transcripts (exon 2-exon 3 junction) (C9orf72 transcripts; 33 nmol ICV)	reduction of r(G4C2)exp-containing intron 1 mRNA (C9orf72 transcripts; 33 nmol single ICV injection, compared to vehicle) [%]	C9orf72 intron 1 levels [2]
dose dependently decreased					CCOC(=O)C1=C(Nc2ccccc2)S/C(=C\c2ccc(OCCOCCOCCOCCNC(=O)CCC(=O)N(CCOCCOCCOc3ccc4[nH]c5c(C)c6ccncc6c(C)c5c4c3)CCOCCOCCOc3ccc4[nH]c5c(C)c6ccncc6c(C)c5c4c3)c(O)c2)C1=O [Compound 7]	not altered	reduced	44±22	
	slower dissociation rate	4 ± 0.07	900	~13	Cc1c2ccncc2c(C)c2c1[nH]c1ccc(OCCOCCOCCNCCOCCOCCOc3ccc4[nH]c5c(C)c6ccncc6c(C)c5c4c3)cc12 [Compound 3]				no effect
